Test results published in patent US20240115654A1, “INTRAVENOUS ADMINISTRATION OF ENGINEERED ANTIMICROBIAL AMPHIPHILIC PEPTIDES” (priority 2021, published 2024).
Read-outs that look alike come from different tables or passages of the source. Peptide text beside a SMILES is read from it.

From the text: All subjects who met eligibility criteria were confined to the clinical research unit from […] through Day 3. At admission, physical examination, vital signs, 12 lead ECG and weight were obtained, medical and medication history were updated if necessary, safety blood tests (hematology and chemistry), urinalysis, urine drug screen and an alcohol breath test were repeated and a urine pregnancy test was done for women of childbearing potential.
At each dose level, there were 2 sentinel subjects, (1 active, 1 placebo), who were dosed at least 48 hours in advance of the other subjects in their respective group. Following review of safety data, including physical examination, vital signs, and review of adverse events from the first 2 subjects, enrolment in the cohort continued.
A 12-lead ECG was performed on Day 1, within 60 minutes of infusion start (in triplicate), mid-way through the infusion, at the completion of the infusion, 30 minutes after completion of the infusion and at various timepoints following the end of the infusion.
Vital signs were recorded within 60 minutes pre-dose, at the mid-point of the infusion and post dose vitals were assessed at completion of the infusion, 0.5, 1, 2, 3, 4, 6, 9, 12, 24 and 48 hours post dose, after at least 3 minutes of rest in supine position.
Subjects returned to the study center 7 days after dosing, for the termination visit. A full physical examination, vital signs and weight were obtained, concomitant medications were updated if necessary, safety blood specimens (haematology and chemistry, PT and aPTT) and urine were collected for urinalysis and urine drug screening. A serum pregnancy test was done for women of childbearing potential and a 12-lead ECG was performed.
In this study dose limiting toxicity (DLT) was defined as any drug related ≥Grade 3 AEs occurring despite optimal therapeutic interventions (which included but were not limited to allergic/hypersensitivity reactions, dermatological reactions/infusion site reactions, haematological toxicities such as neutropenia, thrombocytopenia and anaemia and clinical chemistry abnormalities) experienced up to Day 7 (Termination Visit).
(§1) All subjects who received any amount of study drug were included in the safety analysis (Safety population).
The study was a double blinded, randomized, placebo-controlled study. The placebo administered was 0.9% sodium chloride.
On Day 1 (day of dosing), subjects were randomly assigned either peptide IV or Placebo IV. At each dose level, there were 2 sentinel subjects, (1 active, 1 placebo), who were dosed at least 48 hours in advance of the other subjects in their respective group. Following review of safety data, including physical examination, vital signs, and review of adverse events from the first 2 subjects, enrolment in the cohort continued. All subjects who met eligibility criteria were confined to the clinical research unit from Day −2 through Day 3. At admission, physical examination, vital signs, 12 lead ECG and weight were obtained, medical and medication history were updated if necessary, safety blood tests (hematology and chemistry), urinalysis, urine drug screen and an alcohol breath test were repeated and a urine pregnancy test was done for women of childbearing potential.
as §1

[1] = Cohort 5: 1 mg/kg IV 4-hr infusion (N = 6)
[2] = Cohorts 1-5, comparing dose level, infusion time, placebo and active

Question: For CC(C)[C@H](NC(=O)[C@H](Cc1c[nH]c2ccccc12)NC(=O)[C@H](CCCNC(=N)N)NC(=O)[C@H](CCCNC(=N)N)NC(=O)[C@@H](NC(=O)[C@@H](NC(=O)[C@H](CCCNC(=N)N)NC(=O)[C@@H](NC(=O)[C@@H](NC(=O)[C@H](CCCNC(=N)N)NC(=O)[C@H](CCCNC(=N)N)NC(=O)[C@H](Cc1c[nH]c2ccccc12)NC(=O)[C@@H](NC(=O)[C@H](CCCNC(=N)N)NC(=O)[C@H](CCCNC(=N)N)NC(=O)[C@@H](NC(=O)[C@H](CCCNC(=N)N)NC(=O)[C@H](CCCNC(=N)N)NC(=O)[C@@H](NC(=O)[C@H](Cc1c[nH]c2ccccc12)NC(=O)[C@H](CCCNC(=N)N)NC(=O)[C@@H](N)CCCNC(=N)N)C(C)C)C(C)C)C(C)C)C(C)C)C(C)C)C(C)C)C(C)C)C(=O)N[C@@H](CCCNC(=N)N)C(=O)N[C@@H](CCCNC(=N)N)C(N)=O [SEQ ID NO: 1] (H-RRWVRRVRRVWRRVVRVVRRWVRR-NH2), which “Treatment-related TEAE: Blood and Lymphatic System Disorders, participants n (%)” value [1] is on record?
Answer: 0

Question: And the “Treatment-related TEAE: Constipation, participants n (%)” value [1]?
Answer: 0

Question: What about the “Treatment-related TEAE: Diarrhea, participants n (%)” value [1] of the same compound?
Answer: 0

Question: And the “Treatment-related TEAE: Dizziness, occurrences m” value [1]?
Answer: 1

Question: And the “Treatment-related TEAE: Dizziness, participants n (%)” value [1]?
Answer: 1 (16.7%)

Question: What about the “Treatment-related TEAE: Feeling hot, participants n (%)” value [1] of the same compound?
Answer: 0

Question: And the “Treatment-related TEAE: Gastrointestinal Disorders, occurrences m” value [1]?
Answer: 1

Question: What about the “Treatment-related TEAE: Gastrointestinal Disorders, participants n (%)” value [1] of the same compound?
Answer: 1 (16.7%)

Question: What about the “Treatment-related TEAE: General Disorders and Administration Site Conditions, occurrences m” value [1] of the same compound?
Answer: 7

Question: And the “Treatment-related TEAE: General Disorders and Administration Site Conditions, participants n (%)” value [1]?
Answer: 6 (100%)

Question: What about the “Treatment-related TEAE: Headache, occurrences m” value [1] of the same compound?
Answer: 1

Question: And the “Treatment-related TEAE: Headache, participants n (%)” value [1]?
Answer: 1 (16.7%)

Question: What about the “Treatment-related TEAE: Infusion related reaction, participants n (%)” value [1] of the same compound?
Answer: 0

Question: What about the “Treatment-related TEAE: Infusion site discomfort, occurrences m” value [1] of the same compound?
Answer: 1

Question: What about the “Treatment-related TEAE: Infusion site discomfort, participants n (%)” value [1] of the same compound?
Answer: 1 (16.7%)

Question: What about the “Treatment-related TEAE: Infusion site pain, occurrences m” value [1] of the same compound?
Answer: 3

Question: What about the “Treatment-related TEAE: Infusion site pain, participants n (%)” value [1] of the same compound?
Answer: 3 (50.0%)

Question: And the “Treatment-related TEAE: Infusion site reaction, occurrences m” value [1]?
Answer: 2

Question: And the “Treatment-related TEAE: Infusion site reaction, participants n (%)” value [1]?
Answer: 2 (33.3%)

Question: And the “Treatment-related TEAE: Infusion site swelling, occurrences m” value [1]?
Answer: 1

Question: What about the “Treatment-related TEAE: Infusion site swelling, participants n (%)” value [1] of the same compound?
Answer: 1 (16.7%)

Question: What about the “Treatment-related TEAE: Injury, Poisoning, and Procedural Complications, participants n (%)” value [1] of the same compound?
Answer: 0

Question: What about the “Treatment-related TEAE: Macule, occurrences m” value [1] of the same compound?
Answer: 1

Question: And the “Treatment-related TEAE: Macule, participants n (%)” value [1]?
Answer: 1 (16.7%)

Question: What about the “Treatment-related TEAE: Musculoskeletal and Connective Tissue Disorders, participants n (%)” value [1] of the same compound?
Answer: 0

Question: What about the “Treatment-related TEAE: Myalgia, participants n (%)” value [1] of the same compound?
Answer: 0

Question: And the “Treatment-related TEAE: Nervous system disorders, occurrences m” value [1]?
Answer: 2

Question: And the “Treatment-related TEAE: Nervous system disorders, participants n (%)” value [1]?
Answer: 2 (33.3%)

Question: And the “Treatment-related TEAE: Oropharyngeal pain, participants n (%)” value [1]?
Answer: 0

Question: What about the “Treatment-related TEAE: Orthostatic hypotension, participants n (%)” value [1] of the same compound?
Answer: 0

Question: And the “Treatment-related TEAE: Phlebitis, participants n (%)” value [1]?
Answer: 0

Question: And the “Treatment-related TEAE: Respiratory, Thoracic, and Mediastinal disorders, participants n (%)” value [1]?
Answer: 0

Question: What about the “Treatment-related TEAE: Skin and Subcutaneous Tissue Disorders, occurrences m” value [1] of the same compound?
Answer: 1

Question: And the “Treatment-related TEAE: Skin and Subcutaneous Tissue Disorders, participants n (%)” value [1]?
Answer: 1 (16.7%)

Question: And the “Treatment-related TEAE: Thrombocytopenia, participants n (%)” value [1]?
Answer: 0

Question: What about the “Treatment-related TEAE: Vascular Disorders, participants n (%)” value [1] of the same compound?
Answer: 0

Question: And the “Treatment-related TEAE: Vessel puncture site erythema, participants n (%)” value [1]?
Answer: 0

Question: And the “Treatment-related TEAE: Vessel puncture site pain, participants n (%)” value [1]?
Answer: 0

Question: What about the “Treatment-related TEAE: Vomiting, occurrences m” value [1] of the same compound?
Answer: 1

Question: And the “Treatment-related TEAE: Vomiting, participants n (%)” value [1]?
Answer: 1 (16.7%)

Question: And the “adverse events judged Grade 3 or higher” value (Cohorts 1-4)?
Answer: none

Question: And the “changes in laboratory parameters” value (Cohorts 1-4)?
Answer: No clinically significant changes

Question: What about the “related IRRs, events” value (Cohorts 1-4) of the same compound?
Answer: 13

Question: And the “serious adverse events (SAEs) or deaths” value (Cohorts 1-4)?
Answer: no reports

Question: What about the “subjects with related IRRs” value (Cohorts 1-4) of the same compound?
Answer: 7

Question: And the “subjects with study drug infusion interrupted” value (Cohorts 1-4)?
Answer: 3

Question: And the “subjects with at least one TEAE” value (Cohorts 1-4 (0.05-0.5 mg/kg IV), 29 subjects in the SEQ ID NO: 1 arm)?
Answer: 25 (86.2%) subjects (%)

Question: What about the “TEAEs in SOC General disorders and administration site conditions” value (Cohorts 1-4, 29 subjects) of the same compound?
Answer: 24.1%

Question: What about the “TEAEs in SOC Injury, poisoning, and procedural complication” value (Cohorts 1-4, 29 subjects) of the same compound?
Answer: 48.3%

Question: And the “Vascular access site pain” value (Cohorts 1-4, 29 subjects)?
Answer: 34.5%

Question: And the “subjects reporting Grade 2 TEAEs” value (Cohorts 1-4, 29 subjects)?
Answer: 13.8%

Question: And the “subjects with treatment related-TEAEs” value (Cohorts 1-4, 29 subjects)?
Answer: 24.1%

Question: And the “total TEAEs reported” value (Cohorts 1-4, 29 subjects in the SEQ ID NO: 1 arm)?
Answer: 52

Question: And the “AEs judged Grade 3 or higher” value (Cohorts 1-5)?
Answer: none

Question: What about the “serious TEAEs” value (Cohorts 1-5) of the same compound?
Answer: no reports

Question: What about the “treatment-emergent DLTs” value (Cohorts 1-5) of the same compound?
Answer: no reports

Question: And the “TEAEs in SOC General disorders and administration site conditions” value (Cohorts 1-5, 35 participants)?
Answer: 37.1%

Question: What about the “TEAEs in SOC Injury, Poisoning, and Procedural Complications” value (Cohorts 1-5, 35 participants) of the same compound?
Answer: 51.4%

Question: And the “participants with at least 1 TEAE deemed related to treatment” value (Cohorts 1-5, 35 participants)?
Answer: 37.1%

Question: What about the “participants with at least 1 TEAE leading to study drug discontinuation” value (Cohorts 1-5, 35 participants) of the same compound?
Answer: 5.7%

Question: What about the “total TEAE events” value (Cohorts 1-5, 35 participants) of the same compound?
Answer: 72

Question: What about the “Vascular access site pain” value (Cohorts 1-5, 35 participants (n=10)) of the same compound?
Answer: 28.6%

Question: What about the “Holter monitoring and electrocardiograms” value (Cohorts 1-5, by treatment assignment or dose level) of the same compound?
Answer: no trends of concern

Question: What about the hematology and coagulation [2] of the same compound?
Answer: no clinically significant patterns of change

Question: And the serum chemistry [2]?
Answer: no clinically significant patterns of change

Question: What about the “participants with study drug infusion interrupted” value (Cohorts 1-5, of 47 participants, all in active treatment group) of the same compound?
Answer: 8 (17.0%) participants (%)

Question: What about the “Participants Reporting at least One Related TEAE, %” value (Pooled SEQ ID NO: 1 (N = 29)) of the same compound?
Answer: 24.1%

Question: What about the “Related TEAE Blood and lymphatic system disorders, n participants” value (Pooled SEQ ID NO: 1 (N = 29)) of the same compound?
Answer: 0
